We go through one molecule from patent publication US20190388377A1, “COMPOSITIONS AND METHODS FOR THE TREATMENT OF LIVER DISEASES AND DISORDERS” (AXCELLA HEALTH INC., priority 2018, published 2019).

Structures are written as SMILES.

Assay [1] relates to Urea. As to the kind of experiment: Urea production after 72 h by urea nitrogen (BUN) colorimetric assay, PHH model, Example 2. The assay is classed as cell-based, human. Particulars: FFA+TNFα. The procedure:
PHH from two healthy human donors (Lonza, TRL) were seeded on day 0 at density of 6e04 cells in 96 well optical microplates (Thermofisher) in hepatocyte plating media (William's E medium, WEM) (Gibco) supplemented with 10% heat-inactivated FBS (Atlanta Bio), 2 mM Glutamax (Gibco), and 0.2% Primocin (InVivoGen) and incubated for 6 hours at 37° C., 5% CO2. After 6 hours, cells were washed twice and incubated overnight at 37° C., 5% CO2 with Hepatocytes defined medium (Corning) supplemented with 2 mM Glutamax (Gibco), and 1× Penicillin/Streptomycin. On day 1, cells were washed twice and incubated for 24 h in the hepatocyte culture media in the same conditions described above.
On day 2, cells were washed twice with DPBS 1× (Gibco) to remove excess amino acids and maintained in pretreatment media (1×HMDB, a defined custom amino acid concentration based on the mean physiological concentrations in blood, in WEM±supplemental amino acids): • a. Amino acid-free WEM (US Biologicals) supplemented with 11 mM Glucose (Sigma), 0.272 mM Sodium Pyruvate (Sigma), 1× P/S (Gibco) and containing 1×HMDB with no supplemental amino acids; or • b. The same media described above 1×HMDB WEM with supplemental amino acid and amino acid combination treatments at various concentrations. Cells were maintained in the defined media (a. & b.) for 24 hours at 37° C., 5% CO2. The HMDB values are published in the Human Metabolome Database (Wishart D S, Tzur D, Knox C, et al., HMDB: the Human Metabolome Database. Nucleic Acids Res. 2007 January; 35 (Database issue):D521-6. 17202168; which is hereby incorporated by reference in its entirety). Co-Treatment with Free Fatty Acids and Amino Acids Combination
After 24 h pre-treatment, cells maintained in the pretreatment media±supplemental amino acids (section (a. & b.) described above) were exposed to free fatty acids (FFA) at 250 uM with a ratio of 2:1 (Oleate:Palmitate) supplemented with TNF-α (Thermofisher) at 1 ng/ml. Cells were incubated with the FFAs mixture (FFAs+TNF-α)±supplemental amino acids treatments for 24 hours at 37° C., 5% CO2. After 24 hours incubation, media was removed for cytokine analysis and replaced by fresh media containing the same conditions described above (FFAs mixture±supplemental amino acids treatments). Cells were incubated for an additional 48 hours for a total of 72 hours of FFA and TNF-α stimulation. After 72 hours of incubation, media was removed for albumin and urea analysis and the cells were fixed for nuclei and lipid staining.
Urea was measured as an indicator of hepatocytes functionality by urea nitrogen direct assay (StanBio). Cell supernatant was added to the BUN color reagent and BUN acid reagent at 1(color):2(acid) ratio. Incubate the cell supernatant with BUN reagent for 12 min at 100° C. then for 5 min at 4° C. Read absorbance at 520 nm. Data was normalized to the control. Data is reported as median fold change from control, statistical analysis was done using t-Test.

In assay [2] the test system is Procollagen III. As to the kind of experiment: Procollagen III secretion by ELISA, TGFβ1-stimulated hepatic stellate cells, Example 4. The assay is classed as cell-based, human. Particulars: HSC, three donors. The procedure:
Primary human hepatic stellate cells were obtained from Samsara Sciences. Cells from three different donors were grown in Complete HSC Medium to ˜80% confluence in T75 or T150 flasks below passage 10 were seeded into sterile, collagen I coated, 96-well optical plastic microplates (ThermoScientific) and incubated overnight at 37° C., 5% CO2 in a humidified incubator in DMEM with 2% Fetal Bovine Serum and 1% Antimycotic. […] After 24 hours of stimulus, supernatant was removed and used to measure Procollagen III and cells were then washed and fixed with 4% paraformaldehyde for further staining. Procollagen III, an important biomarker of fibrosis was measured by ELISA (Human PCIII Elisa Kit, G-Biosciences) following the manufacturer's recommendations. Fixed cells with 4% paraformaldehyde were permeabilized with 0.1% Triton X-100 then immunostained for alpha SMA and labeled for EdU incorporation.
For orientation: In an ELISA, binding on a coated surface is turned into a signal by an enzyme label.

In assay [3] the test system is IL-6. As to the kind of experiment: IL-6 secretion by ELISA, LPS-treated primary human M1 macrophages, Example 5. It counts as cell-based. Here is the method: (§1) Primary human PMBC derived macrophages were seeded on day 0 at 3.0E4 cells per well in 96-well microplates (ThermoFisher) in Dulbecco's Modified Eagle Medium (DMEM) (Gibco) supplemented with penicillin-streptomycin (Hyclone) and 10% heat inactivated fetal bovine serum (HI-FBS) (Atlanta Bio) and incubated overnight at 37° C., 5% CO2. On day 1, cells were washed once with 150 uL per well DPBS (Gibco) and treated with 75 uL of: • a. Amino acid free DMEM (US Biologicals) containing a defined custom amino acid concentration based on the mean physiological concentrations in blood based on values published in the Human Metabolome Database (HMDB), with 6 mM glucose, 1 mM sodium pyruvate, 10 mM HEPES, 0.2% primocin (InVivoGen); or • b. The same media described above with supplemental amino acid and amino acid combination treatments at various concentrations. […]
(§2) On day 3, the supernatant was collected and immediately frozen in −80° C. freezer. Cells were washed once with 150 uL DPBS and viability was assessed using the WST-8 Cell Proliferation Cytotoxicity Assay (Dojindo). […] Protein levels in supernatant samples were analyzed by ELISA for IL-6 and TNFa using commercially available kits (R&D Systems) according to manufacturer-supplied protocols.

The test system of assay [4] is TNFa. Nature of the assay: TNFa secretion by ELISA, LPS-treated primary human M1 macrophages, Example 5. The assay is classed as cell-based. Here is the method:
as §1, §2

With `CC(=O)N[C@@H](CS)C(=O)O` [Nac, N-acetylcysteine], the results for the “urea production (in words)” value in assay [1] (hepatocyte donor 1) and in assay [1] (hepatocyte donor 2) were “No changes in urea production” and “slightly induce urea production”, respectively. Also, the “procollagen III secretion (in words)” value in assay [2] was “decreased procollagen III secretion but at a lower extent than LIRNacCar and LIRQNacSCar”. Also, the “LPS-stimulated IL-6 secretion (in words)” value in assay [3] was “decreased LPS-stimulated IL-6 and TNFa secretion”. For the same molecule, the “LPS-stimulated TNFa secretion (in words)” value in assay [4] is “decreased LPS-stimulated IL-6 and TNFa secretion”.
